{"source": "paper PMC4664064", "about": "(Chemical research in toxicology, 2015)", "key": {"[1]": {"molecular_target": "T1, P450 1A1 (Homo sapiens, UniProt P04798)", "T1 sequence (P04798 1-512)": "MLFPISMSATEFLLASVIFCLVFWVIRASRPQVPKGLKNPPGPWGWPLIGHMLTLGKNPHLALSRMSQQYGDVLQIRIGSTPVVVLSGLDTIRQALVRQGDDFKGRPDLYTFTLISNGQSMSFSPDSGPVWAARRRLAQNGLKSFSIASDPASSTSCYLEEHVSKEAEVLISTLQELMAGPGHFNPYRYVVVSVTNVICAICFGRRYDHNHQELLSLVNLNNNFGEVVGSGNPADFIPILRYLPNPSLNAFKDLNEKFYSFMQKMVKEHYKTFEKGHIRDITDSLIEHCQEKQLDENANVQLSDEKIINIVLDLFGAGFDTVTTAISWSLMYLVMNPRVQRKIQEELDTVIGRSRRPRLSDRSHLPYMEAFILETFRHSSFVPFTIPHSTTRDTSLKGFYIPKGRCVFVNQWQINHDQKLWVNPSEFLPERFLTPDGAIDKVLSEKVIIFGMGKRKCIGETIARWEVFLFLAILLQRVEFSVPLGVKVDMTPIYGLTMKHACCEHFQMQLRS", "T1 sequence (P16435 2-677 partner)": "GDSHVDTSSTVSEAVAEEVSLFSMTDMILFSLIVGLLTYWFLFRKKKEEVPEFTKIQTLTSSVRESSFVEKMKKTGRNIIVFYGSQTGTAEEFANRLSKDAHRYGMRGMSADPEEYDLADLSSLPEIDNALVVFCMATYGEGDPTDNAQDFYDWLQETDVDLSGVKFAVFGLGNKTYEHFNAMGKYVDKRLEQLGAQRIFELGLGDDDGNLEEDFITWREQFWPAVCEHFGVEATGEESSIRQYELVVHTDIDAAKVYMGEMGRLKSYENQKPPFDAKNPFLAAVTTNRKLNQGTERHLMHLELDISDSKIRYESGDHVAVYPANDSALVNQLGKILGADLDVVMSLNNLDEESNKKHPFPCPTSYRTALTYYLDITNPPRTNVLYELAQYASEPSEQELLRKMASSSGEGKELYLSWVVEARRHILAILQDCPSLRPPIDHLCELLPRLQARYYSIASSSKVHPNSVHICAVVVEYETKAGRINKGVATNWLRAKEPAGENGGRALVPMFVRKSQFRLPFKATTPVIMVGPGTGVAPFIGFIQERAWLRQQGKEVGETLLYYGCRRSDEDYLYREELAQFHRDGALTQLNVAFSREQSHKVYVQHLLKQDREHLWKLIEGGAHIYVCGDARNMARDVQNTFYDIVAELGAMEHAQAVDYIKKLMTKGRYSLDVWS", "test": "EROD assay with recombinant enzyme, compound at […]", "type": "biochemical"}, "[2]": {"molecular_target": "T2, P450 1B1 (Homo sapiens, UniProt Q16678)", "T2 sequence (Q16678 1-543)": "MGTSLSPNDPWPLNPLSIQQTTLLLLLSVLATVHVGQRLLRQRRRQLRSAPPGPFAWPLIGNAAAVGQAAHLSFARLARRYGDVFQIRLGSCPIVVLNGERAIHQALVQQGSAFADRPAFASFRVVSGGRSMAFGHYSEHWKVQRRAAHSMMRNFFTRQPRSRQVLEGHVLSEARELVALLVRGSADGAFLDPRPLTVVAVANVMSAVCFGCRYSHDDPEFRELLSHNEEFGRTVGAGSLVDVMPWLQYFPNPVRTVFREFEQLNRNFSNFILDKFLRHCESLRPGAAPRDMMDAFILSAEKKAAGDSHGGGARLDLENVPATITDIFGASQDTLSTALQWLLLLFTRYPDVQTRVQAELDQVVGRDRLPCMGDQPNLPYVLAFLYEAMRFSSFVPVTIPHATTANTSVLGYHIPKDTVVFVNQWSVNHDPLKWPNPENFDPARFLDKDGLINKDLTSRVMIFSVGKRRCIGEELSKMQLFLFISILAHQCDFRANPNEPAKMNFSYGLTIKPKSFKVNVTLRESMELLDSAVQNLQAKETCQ", "T2 sequence (P16435 2-677 partner)": "T1 sequence (P16435 2-677 partner)", "test": "EROD assay with recombinant enzyme, compound at […]", "type": "biochemical"}}, "data": [{"compound": "C=CC(C)(C)c1cc(/C=C/C(=O)c2ccc(O)cc2)c(OC)cc1O", "note": "[LicA, licochalcone A]", "values": [{"measurement": "EROD assay with recombinant enzyme, compound at 1 and 10 uM", "setting": "[1]", "value": "LicA and LigC led to a significant inhibition of recombinant P450 1A1/1B1 enzyme activity (Figure 7B, C)"}, {"measurement": "EROD assay with recombinant enzyme, compound at 1 and 10 uM", "setting": "[2]", "value": "LicA and LigC led to a significant inhibition of recombinant P450 1A1/1B1 enzyme activity (Figure 7B, C)"}]}, {"compound": "O=C(/C=C/c1ccc(O)cc1)c1ccc(O)cc1O", "note": "[LigC, isoliquiritigenin]", "values": [{"measurement": "EROD assay with recombinant enzyme, compound at 1 and 10 uM", "setting": "[1]", "value": "LicA and LigC led to a significant inhibition of recombinant P450 1A1/1B1 enzyme activity (Figure 7B, C)"}, {"measurement": "EROD assay with recombinant enzyme, compound at 1 and 10 uM", "setting": "[2]", "value": "LicA and LigC led to a significant inhibition of recombinant P450 1A1/1B1 enzyme activity (Figure 7B, C)"}]}]}
